Data published in paper PMC12304826, “Redirecting the Peptide Cleavage Causes Protease Inactivation” (Angewandte Chemie (International Ed. in English), 2025).
Like-named read-outs stand apart in the source and are kept apart here.

Biological target: T1, human cathepsin K (Homo sapiens, UniProt P43235)
T1 construct: purchased Enzo Life Sciences, Lörrach, Germany
T1 sequence (P43235 115-329): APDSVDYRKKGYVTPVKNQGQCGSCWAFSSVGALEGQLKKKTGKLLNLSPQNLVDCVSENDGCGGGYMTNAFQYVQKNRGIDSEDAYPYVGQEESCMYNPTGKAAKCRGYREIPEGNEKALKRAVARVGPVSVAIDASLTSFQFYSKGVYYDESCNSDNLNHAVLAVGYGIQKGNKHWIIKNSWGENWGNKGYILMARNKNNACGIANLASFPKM
Test: Cathepsin K inhibition assay (Cbz-Leu-Arg-AMC)
Assay type: biochemical
Settings: for kinac/Ki ± SE Cat K: five inhibitor concentrations, 60 min progress curves
Experimental: 1. Enzyme Inhibition Assays and Kinetic Data of Inhibition of Cathepsins B, L, K and S General. Human cathepsins were assayed either fluorimetrically or spectrophotometrically as noted below. The 10 mM inhibitor solutions were prepared in DMSO. The final concentration of DMSO in all assays was 2%. Non-linear regressions were conducted with GraFit 5. Residual cathepsin activity at an inhibitor concentration of 20 µM was determined from duplicate measurements based on the product formation after 60 min. Concentration dependent measurements were performed in duplicate measurements with five different inhibitor concentrations when the residual cathepsin activity in the presence of 20 µM inhibitor was below 70% (cathepsin B) or below 50% (cathepsins cathepsins L, K, and S). Progress curves were monitored for 60 min. First-order rate constants, kobs, were determined by non-linear regression following the equation [P] = vi × (1 – exp(-kobs × t))/kobs + d, where [P] is the product concentration, vi is the initial product formation rate, kobs is the observed first-order rate constant, and d is the offset. Mean values of kobs were plotted versus corresponding inhibitor concentrations [I], and second-order rate constants of inactivation, kinac/Ki, were obtained by linear regression. The equation kobs/[I] = (kinac/Ki)/(1 + [S]/Km) was used, where [S] is the substrate concentration and Km is the Michaelis-Menten constant. Standard errors (SE) refer to the linear regression. […] Cathepsin K inhibition assay.[1] Human recombinant cathepsin K (Enzo Life Sciences, Lörrach, Germany) was assayed fluorimetrically on a Monaco Safas spectrofluorometer flx or a Fluostar OPTIMA plate reader (BMG Labtech, Ortenberg, Germany). The wavelength for excitation was 360 nm and for emission 440 nm. The reactions were followed at 25 °C. A human cathepsin K stock solution of 23 µg/mL in 50 mM sodium acetate pH 5.5, 50 mM NaCl, 0.5 mM EDTA, 5 mM DTT was diluted 1:100 with assay buffer (100 mM sodium citrate pH 5.0, 100 mM NaCl, 1 mM EDTA, 0.01% CHAPS) containing 5 mM DTT and incubated for 30 min at 37 °C. A 10 mM stock solution of the 7-amino-4-methyl-coumarin (AMC)-based fluorogenic substrate Cbz-Leu-Arg-AMC was prepared in DMSO. The final concentration of the substrate was 40 μM (= 13.3 Km). When using the spectrofluorometer, into a cuvette containing 960 μL assay buffer, inhibitor solution and DMSO in a total volume of 16 μL, and 4 μL of the substrate solution were added and mixed. The reaction was initiated by adding 20 µL of the cathepsin K solution. When using the plate reader, into a well containing 192 µL assay buffer, inhibitor solution and DMSO in a total volume of 3.2 µL and 0.8 µL of the substrate solution were added and mixed. The reaction was initiated by adding 4 µL of the cathepsin K solution.
Cathepsin S inhibition assay.[2] […]
DTT, 0.5% Triton X-100 and 30% glycerol was diluted 1:100 with a 50 mM sodium phosphate buffer pH 6.5, 50 mM NaCl, 2 mM EDTA, 0.01% Triton X-100 and 5 mM DTT and incubated for 60 min at 37 °C. A 10 mM stock solution of the fluorogenic substrate Cbz-Phe-Arg-AMC was prepared in DMSO.
The assay was performed with a final substrate concentration of 40 µM (= 0.74 Km). When using the spectrofluorometer, into a cuvette containing 920 μL assay buffer, inhibitor solution and DMSO in a total volume of 16 μL, and 4 μL of the substrate solution were added and mixed. The reaction was initiated by adding 60 μL of the cathepsin S solution. When using the plate reader, into a well containing 188 µL assay buffer, inhibitor solution and DMSO in a total volume of 3.2 µL and 0.8 µL of the substrate solution were added and mixed. The reaction was initiated by adding […] of the cathepsin S solution.

[1] = 20 µM inhibitor, 60 min, read-out: Residual activity @ 20 µM (%) Cat K
[2] = inhibitor not soluble at 20 µM, calculated for 20 µM from IC50 at two lower concentrations, read-out: Residual activity @ 20 µM (%) Cat K, approximated [e]

| SMILES | remaining activity at 20 µM [1] [%] | further results |
| --- | --- | --- |
| CC(C)CC(OC(=O)Nc1ccc(Cl)cc1)C(=O)N1CCC[C@H]1C(=O)O (some centres unmarked) [Compound 17] | 95 | – |
| CC(C)C[C@H](NC(=O)Oc1ccc(Cl)cc1)C(=O)N1CCCC[C@H]1C(=O)O [Compound 10] | 93 | – |
| CC(C)C[C@H](NC(=O)Oc1ccc(-c2ccccc2)c(NC(=O)Cc2ccccc2)c1)C(=O)N1CCC[C@H]1C(=O)O [Compound 21] | 73 | – |
| CC(C)C[C@H](NC(=O)Nc1ccc(Cl)cc1)C(=O)N[C@@H](Cc1ccccc1)C(=O)O [Compound 18] | 87 | – |
| CC(C)C[C@H](NC(=O)Oc1ccc(Cl)cc1)C(=O)N[C@@H](Cc1ccccc1)C(=O)OC(C)(C)C [Compound 2] | 93 | – |
| CC(C)C[C@H](NC(=O)Oc1ccc(Cl)c(NC(=O)Cc2ccccc2)c1)C(=O)N1CCC[C@H]1C(=O)O [Compound 20] | 82 | – |
| CC(C)CC(NC(=O)Oc1ccc(NC(=O)c2ccc(-c3ccccc3)cc2)c(Cl)c1)C(=O)N1CCCC1C(=O)O (centres unmarked) [Compound 25] | – | remaining activity at 20 µM [2]: 76% |
| O=C(NC(CC1CCCCC1)C(=O)NC(Cc1ccccc1)C(=O)O)Oc1ccc(Cl)cc1 (centres unmarked) [Compound 7] | 60 | – |
| CC(C)C[C@H](NC(=O)Oc1ccc(Cl)cc1)C(=O)N[C@@H](Cc1ccccc1)C(=O)O [Compound 4] | 92 | – |
| CC(C)CC(NC(=O)Oc1ccccc1)C(=O)NC(Cc1ccccc1)C(=O)O (centres unmarked) [Compound 1] | 77 | – |
| COC(=O)C(Cc1ccccc1)NC(=O)C(CC(C)C)NC(=O)Oc1ccc(Cl)cc1 (centres unmarked) [Compound 3] | ≥ 98 | – |
| CC(C)C[C@H](NC(=O)Oc1ccc(NC(=O)N(Cc2ccccc2)Cc2ccccc2)c(Br)c1)C(=O)N1CCC[C@H]1C(=O)O [Compound 26] | 83 | – |
| O=C(NC(CC1CCCCC1)C(=O)NC(Cc1ccccc1)C(=O)O)Oc1ccc(NC(=O)C(c2ccccc2)c2ccccc2)c(Cl)c1 (centres unmarked) [Compound 30] | – | kinac/Ki ± SE Cat K: 3490 M⁻¹ s⁻¹ |
| O=C(NC(CC1CCCCC1)C(=O)NC(Cc1ccccc1)C(=O)O)Oc1ccc(NC(=O)C(Cc2ccccc2)Cc2ccccc2)c(Cl)c1 (centres unmarked) [Compound 31] | – | kinac/Ki ± SE Cat K: 23.1 M⁻¹ s⁻¹ |
| CC(C)CC(CNC(=O)Oc1ccc(Cl)cc1)C(=O)N[C@H](Cc1ccccc1)C(=O)O (some centres unmarked) [Compound 5] | 70 | – |
| CC(C)C[C@H](NC(=O)Oc1ccc(NC(=O)Cc2ccccc2)c(Cl)c1)C(=O)N1CCC[C@H]1C(=O)O [Compound 24] | 95 | – |
| CC(C)C[C@H](NC(=O)Nc1ccc(Cl)cc1)C(=O)N1CCC[C@H]1C(=O)O [Compound 19] | 92 | – |
| CC(C)CC(CNC(=O)Oc1ccc(Cl)cc1)C(=O)N1CCC[C@@H]1C(=O)O (some centres unmarked) [Compound 9] | 85 | – |
| CC(C)CC(OC(=O)Nc1ccc(Cl)cc1)C(=O)N[C@@H](Cc1ccccc1)C(=O)O (some centres unmarked) [Compound 16] | – | kinac/Ki ± SE Cat K: 185 M⁻¹ s⁻¹ |
| CC(C)CC(NC(=O)Oc1ccc(NC(=O)C(c2ccccc2)c2ccccc2)c(Cl)c1)C(=O)NC(Cc1ccccc1)C(=O)O (centres unmarked) [Compound 29] | – | remaining activity at 20 µM [2]: 8% |
| CC(C)C[C@H](NC(=O)Oc1ccc(Cl)cc1)C(=O)N1CCC[C@H]1C(=O)O [Compound 8] | 91 | – |
| CC(C)CC(NC(=O)Oc1ccc(NC(=O)C(c2ccccc2)c2ccccc2)c(Cl)c1)C(=O)N1CCCC1C(=O)O (centres unmarked) [Compound 28] | 83 | – |
| CC(C)CC(NC(=O)Oc1ccc(NC(=O)C(c2ccccc2)c2ccccc2)c(Br)c1)C(=O)N1CCCC1C(=O)O (centres unmarked) [Compound 27] | 90 | – |
| CC(C)C[C@H](NC(=O)Oc1cccc(Cl)c1)C(=O)N1CCC[C@H]1C(=O)O [Compound 23] | 87 | – |
| CC(C)C[C@@H](C(=O)N1CCC[C@H]1C(=O)O)N(C)C(=O)Oc1ccc(Cl)cc1 [Compound 15] | 91 | – |
| CC(C)CC(NC(=O)Oc1ccc(Cl)c(NC(=O)C(c2ccccc2)c2ccccc2)c1)C(=O)N1CCCC1C(=O)O (centres unmarked) [Compound 22] | 87 | – |
